In patent publication US20250389728A1, “NOVEL CLASS OF TRIOXANE-BASED MS-CLEAVABLE CROSS-LINKERS TO ADVANCE PROTEIN-PROTEIN INTERACTION STUDIES USING CROSS-LINKING MASS SPECTROMETRY” (The Regents of the University of California, priority 2024, published 2025):

Assays:
BSA = BSA (Bos taurus, UniProt P02769); assay: TSTO cross-linking of BSA, LC-MSn
Description: The reaction was carried out for 1 h at RT, followed by quenching with ammonium bicarbonate. […] Cross-linked proteins were then digested in 8M urea buffer using LysC for 4 h at 37° C., followed by trypsin digestion at 37° C. overnight after diluting urea concentration to <1.5 M. The resulting peptide mixtures were extracted and desalted using C18 tips (Agilent) prior to MS analyses.
(§1) LC-MS^n analysis. LC-MS^n analysis of cross-linked peptides was performed using an UltiMate 3000 UPLC (Thermo Fisher Scientific) liquid chromatograph coupled on-line to an Orbitrap Fusion Lumos mass spectrometer (Thermo Fisher Scientific). Peptides were separated by reverse-phase on a 50 cm×75 μm I.D. Acclaim® PepMap RSLC column using gradients of 4% to 25% acetonitrile at a flow rate of 300 nL/min (solvent A: 100% H2O, 0.1% formic acid; solvent B: 100% acetonitrile, 0.1% formic acid) prior to MS^n analysis. For each MS^n acquisition, duty cycles consisted of one full Fourier transform scan mass spectrum (375-1500 m/z, resolution of 60,000 at m/z 400) followed by data-dependent MS^2 and MS^3 acquired at top speed in the Orbitrap and linear ion trap, respectively. Ions detected in MS^1 with 4+ or greater charge were selected and subjected to CID fragmentation (NCE 23%) in MS^2 and resulting ions were detected in the Orbitrap (resolution 30,000). Ions observed in MS^2 spectra with charge 2+ or greater were selected and fragmented in MS^3 using CID (NCE 35%) and detected in the linear ion trap in ‘Rapid’ mode. Ions selected for MS^3 were either based on abundance (top 4 or 5 most intense ions in MS^2) or targeted based on doublets with mass difference pairs (Δ=18.02 Da) corresponding to cross-linker remnant moiety water loss. For 26S proteasome cross-links, each acquisition was 200 min and ion selection for MS^3 was based on top intensity. For SEC-separated F24 fractions, the entire HpHt fraction was injected; for F26 fractions half of the HpHt fraction was injected for each LC-MS^n analysis. Each acquisition was 120 or 150 min, and both top intensity and mass difference-targeted methods were used for selecting ions for MS^3 analysis.
Spectrometric data were extracted from .raw files using PAVA. Extracted MS^3 spectra were subjected to protein database searching via Batch-Tag within a developmental version of Protein Prospector (v. 6.3.5, University of California, San Francisco) against a randomly concatenated SwissProt database consisting of 20,418 human proteins and their corresponding decoys. Mass tolerances for parent ions and fragment ions were set as ±15 ppm and 0.6 Da, respectively. Trypsin was set as the enzyme with three maximum missed cleavages allowed. Cysteine carbamidomethylation was selected as a constant modification, while protein N-terminal acetylation, methionine oxidation, and N-terminal conversion of glutamine to pyroglutamic acid were selected as variable modifications.

human 26S proteasomes = assay: TSTO cross-linking of affinity-purified 26S proteasomes, LC-MSn
Description: Cross-linked proteins were then digested in 8M urea buffer using LysC for 4 h at 37° C., followed by trypsin digestion at 37° C. overnight after diluting urea concentration to <1.5 M. The resulting peptide mixtures were extracted and desalted using C18 tips (Agilent) prior to MS analyses.
as §1, with “MS^3 analysis. […]” for “MS^3 analysis.”

BSA, sequence (P02769 25-607): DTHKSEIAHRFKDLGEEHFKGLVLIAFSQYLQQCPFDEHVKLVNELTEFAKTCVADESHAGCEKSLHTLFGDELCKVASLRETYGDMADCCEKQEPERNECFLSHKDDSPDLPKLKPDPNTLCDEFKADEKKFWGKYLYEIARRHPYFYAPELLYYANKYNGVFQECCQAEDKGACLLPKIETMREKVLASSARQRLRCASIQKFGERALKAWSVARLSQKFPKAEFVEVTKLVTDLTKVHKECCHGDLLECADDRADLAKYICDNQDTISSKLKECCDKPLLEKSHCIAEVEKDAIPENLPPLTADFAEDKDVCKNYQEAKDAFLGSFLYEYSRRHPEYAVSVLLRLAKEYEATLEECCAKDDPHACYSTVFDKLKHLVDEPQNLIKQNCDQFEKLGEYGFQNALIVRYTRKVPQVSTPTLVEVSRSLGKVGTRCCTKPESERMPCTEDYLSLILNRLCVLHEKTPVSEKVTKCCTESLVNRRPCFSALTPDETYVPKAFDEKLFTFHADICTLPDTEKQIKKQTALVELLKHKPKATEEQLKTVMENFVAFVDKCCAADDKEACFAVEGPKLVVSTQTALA

O=C(CCCC1OC(CCCC(=O)ON2C(=O)CCC2=O)OC(CCCC(=O)ON2C(=O)CCC2=O)O1)ON1C(=O)CCC1=O (centres unmarked) [TSTO, Tris(2,5-dioxopyrrolidin-1-yl) 4,4′,4″-(1,3,5-trioxane-2,4,6-triyl)tributanoate]
redundant cross-linked spectra matches (CSMs) (BSA; 1 mM TSTO, pH 7.4 PBS, 1 h RT): 823
unique CSMs (BSA; 1 mM TSTO, pH 7.4 PBS, 1 h RT): 167
tri-links share of total unique CSMs (BSA; 45/167): ~27%
overall mapped distance median (Cα-Cα) (BSA; mapped to PDB:4F5S): 21.1 Å
satisfaction rate of cross-links ≤35 Å (BSA; mapped to PDB:4F5S): 90%
share of unique CSMs that were tri-links (human 26S proteasomes; 0.75 mM TSTO on-bead): 41.3%
total unique CSMs (human 26S proteasomes; 0.75 mM TSTO on-bead, PBS pH 7.5, 1 h): 808
satisfaction rates (≤35 Å) of mapped tri-links and bi-links (human 26S proteasomes; mapped to PDB: 7QY7): ~90%
